Results reported in patent publication US8790712B2, “Constitutional function-improving agents” (Cosmo Oil Co., Ltd., priority 2004, dated 2014).

Legend:
[1] = test system: Mice (35 to 45 weeks old, BALB/cAJc1); test: Migration distance in cage for 5 minutes (Example 4); format: in vivo, mouse; conditions: 10 mg/kg orally once a day for 7 days; for Exercise quantity (m): migration distance in 5 minutes
Description: Mice (35 to 45 weeks old, BALB/cAJc1) preliminary raised for 1 week were injected with 10 mg of ALA hydrochloride per 1 kg mouse body weight once a day for 7 days continuously. ALA hydrochloride was adjusted to a concentration of 0.5 g/ml with distilled water and orally administered to the mice. After the test, the mouse was put into a cage of 20 cm×20 cm in floor area, and its migration distance was measured for 5 minutes. The test was carried out using 5 male and 5 female mice, a total of 10 animals, for each plot, and the values were shown by average value. It was confirmed that the migration distance is long and the capacity for locomotion is improved in both cases of male and female in the ALA-treated plot.

CD4-CD8+ cells = test: Subset test of lymphocytes from thymus (Example 2); format: in vivo, mouse; conditions: 10 mg/kg orally once a day for 7 days
Description: (§1) Mice (35 to 45 weeks old, BALB/cAJc1) preliminary raised for 1 week were injected with 10 mg of ALA hydrochloride per 1 kg mouse body weight once a day for 7 days continuously. ALA hydrochloride was adjusted to a concentration of […] with distilled water and orally administered to the mice. After the test, each mouse was sacrificed and the weight of its thymus and the number of cells were measured. In addition, a subset test of lymphocytes was carried out using the obtained cells. The test was carried out using 5 mice per 1 plot, and their values were shown by average value. […] Also, since the cell of CD4-CD8+ was increased in the ALA-treated plot based on the subset test, it was confirmed that the cytotoxic T cell increases after its future differentiation, so that its immunological function improving ability was shown (Table 3). In addition, photographs of the thymus of untreated plot (un-administered group) and the thymus of ALA-treated plot (ALA-treated group) are shown in FIG. 1.

[2] = test system: Mice (35 to 45 weeks old, BALB/cAJc1); test: Thymus weight of aged mice after 7 days oral ALA hydrochloride (Example 1); format: in vivo, mouse; conditions: 10 mg/kg ALA hydrochloride orally once a day for 7 days, average of 5
Description: Mice (35 to 45 weeks old, BALB/cAJc1) preliminary raised for 1 week were injected with 10 mg of 5-aminolevulinic acid (hereinafter referred to as “ALA”) hydrochloride per kg mouse body weight once a day for 7 days continuously. ALA hydrochloride was adjusted to a concentration of […] with distilled water and orally administered to the mice. After the test, each mouse was sacrificed and the weight of its thymus was measured. The test was carried out using 5 mice per 1 plot, and their values were shown by average value.

thymus cells = test: Thymus weight and number of thymus cells of aged mice (Example 2); format: in vivo, mouse; conditions: 10 mg/kg orally once a day for 7 days; for The number of cells: thymus
Description: as §1

LW·D piglets = test: Body weight gain of piglets fed ALA hydrochloride for 6 weeks (Example 8); format: in vivo, pig
Description: LW·D piglets produced on the same day at a swinery were purchased 3 times, each time for 14 animals (each 7 animals of castrates and females), and subjected to preliminary raising for 9 to 12 days to confirm that their healthy state is normal, and then 12 animals (each 6 animals of castrates and females) were selected for each time and used in the test. The test plots were set to a total of 3 plots of a control plot in which a control feed (Table 8) without adding ALA hydrochloride is provided, and 2 test plots in which 10 ppm or 50 ppm of ALA hydrochloride is added to the feed and provided. The piglets to be tested were divided into 3 groups, each group including 4 animals (each 2 animals of castrates and females), in such a manner that distribution of body weight became almost uniform, and 1 groups was allotted to each plot and raised for 6 weeks. The swinery used in the test was an open type swinery in which a pig chamber of 1.8×2.7 m concrete floor was arranged in a row of 14 chambers, and group feeding was carried out using adjoining 3 pig chambers for each block. Rice straws were used as the bedding. A warm-keeping box was arranged in each pig chamber for 3 weeks after start of the test. The feed and drinking water were constantly provided. Body weight gain was calculated by measuring individual body weight at intervals of 1 week from the start of the test.

NCC(=O)CCC(=O)O [ALA, 5-aminolevulinic acid]
Symptoms such as abnormal stimulation and action ([1]; ALA-treated mice during the test): symptoms such as abnormal stimulation and action were not observed
Exercise quantity (m) ([1]; female mice): 25.5 m
Exercise quantity (m) ([1]; male mice): 41 m
CD4−CD8+ (%) (CD4-CD8+ cells; female mice): 3.25%
CD4−CD8+ (%) (CD4-CD8+ cells; male mice): 5.55%
Thymus ([2]; female mice): 0.038 g
Thymus ([2]; male mice): 0.035 g
Thymus (thymus cells; female mice): 0.044 g
Thymus (thymus cells; male mice): 0.034 g
The number of cells (thymus cells; female mice): 49.9 × 10^6
The number of cells (thymus cells; male mice): 22.0 × 10^6
Growth (growth curves, body weight gain) (LW·D piglets; 10 ppm in feed): superior growth than the control plot
Growth (growth curves, body weight gain) (LW·D piglets; 50 ppm in feed): superior growth than the control plot
Health state (LW·D piglets; ALA-treated groups, 10 ppm or 50 ppm in feed): abnormal health state was not fund
